According to patent publication US4185119A, “Antiallergic methods” (priority 1977, dated 1980):

Assays:
[1] = Antiallergic action (summary of tests); type: in vivo; details: summary statement
Text: Test: Antiallergic Action
(2) Inhibition test of P.C.A. (Passive Cutaneous Anaphylaxis) reaction
(3) Inhibition test of anaphylactic asthma in guinea-pigs

[2] = Apomorphine-like side effect (summary of side effect tests); type: in vivo; details: summary statement
Text: (i) Rotational behavior inducing action in rats unilaterally lesioned in substantia nigra,
(ii) Gnawing behavior including action in rats, and
(iii) Vomiting-inducing action in dogs

[3] = cited from earlier work
[4] = system: P.C.A. reaction in I.C.R. strain mice; assay: Inhibition test of P.C.A. reaction in I.C.R. strain mice, rat hyperimmune antiserum against egg albumin; type: in vivo; details: intraperitoneal, I.C.R. mouse (Table 3-II)
Protocol: (c) Inhibition test of P.C.A. reaction in I.C.R. (Institute of Cancer Research) strain mice
(i) Test compound: N-methyllaurotetanine hydrochloride
Fifteen male I.C.R. strain mice aged 7 weeks, weighing about 35 g were divided equally into 3 groups. Each of the groups was composed of 5 mice, (in case of intraperioneal administration of the test compound to the mouse, each of the groups was composed of […]).
Ten-hold diluted solution (0.05 ml.) of the rat hyperimmune antiserum against egg albumin was given intracutaneously to the depilated back of each mouse of Group I and Group II, respectively. On the other hand, a rat normal serum (0.05 ml.) was given intracutaneously to the depilated back of each mouse of Group III. Three hours after the administration, a normal saline (0.1 ml.) containing egg albumin (1.5 mg.) and Evans blue (0.5 mg.) was given intravenously to each mouse of Groups I-III in order to bring about P.C.A., respectively.
Beforehand, 3 hours and 1 hours before the admnistration to bring about P.C.A., a normal saline (0.3 ml.) containing the prescribed amount of N-methyllaurotetanine hydrochloride and carboxymethylcellulose (0.5%) was given orally or intraperitoneally to each mouse of Group I, and a normal saline (0.3 ml.) containing only carboxymethylcellulose (0.5%) was given orally or intraperitoneally to each mouse of Group II.
The procedure followed by the above, was carried out in substantially the same manner as described in the above item (2)-(a). […]

[5] = system: P.C.A. reaction in Donryu strain rats; assay: Inhibition of P.C.A. reaction in Donryu strain rats, rat reaginic antiserum against egg albumin; type: in vivo; details: Donryu rat (Table 2-II)
Protocol: (a) Rat reaginic antiserum against egg albumin
A solution of egg albumin (2 mg) in B. pertussis-diphtheria-tetanus mixed vaccine (1 ml.) (made by Takeda Chemical Industries Ltd.) was mixed with an equal volume of incomplete adjuvant (made by Difco Laboratories) to give an emulsion. The emulsion was given subcutaneously in a single dose of 1 ml. divided equally (0.25 ml.) to the four foot pads of male S.D. (Sprague-Dawley) strain rats aged 8 weeks, each weighing about 300 g.
Five days after the administration, a solution of egg albumin (0.5 mg.) in B. pertussis-diphtheria-tetanus mixed vaccine (0.5 ml.) was further given intramuscularly in a single dose of 0.5 ml. divided equally (0.25 ml.) to 2 places of thigh of the same rats.
Three days after the second administration, blood samples were collected from femoral artery of the rats and allowed to stand at ambient temperature for 5 hours. The separated supernatant was centrifuged at 4° C. (10,000 r.p.m.× 1 hour). The antisera thus obtained were stored at -80° C. prior to use.
(§1) (b) Inhibitory effect on P.C.A. reaction in Donryu strain rat
(§2) The following tests were carried out in substantially the same manner as described in the above item (2)-(a).
(§3) (i) Test compound: N:methyllaurotetanine hydrochloride
(§4) Test animal: Male Donryu strain rats aged 8 weeks, weighing about 130 g.
(§5) Challenge: A normal saline (0.3 ml.) containing egg albumin (4.5 mg.) and Evans blue (1.5 mg.).
(§6) (ii) Test commpound: glaucine or boldine
(§7) Test animal: Male Donryu strain rats aged 8 weeks, weighing 140-150 g.
(§8) Challenge: the same as the above item (b)-(i).

[6] = Acute toxicity in mice; details: mouse, in vivo, ip; intraperitoneal, male I.C.R. mice, survivals at one week
Protocol: Test: Acute Toxicity in Mice
A normal saline containing each of the test compound mentioned below and 0.5% carboxymethylcellulose was given intraperitoneally to male I.C.R. (Institute of Cancer Research) strain mice aged 5 weeks, weighing 33-35 g. LD50 values were calculated from the survivals of mice at one week after the administration of the test compound.

[7] = system: P.C.A. reaction in Donryu strain rats; assay: Inhibition of P.C.A. reaction in Donryu strain rats, rat hyperimmune antiserum against egg albumin; type: in vivo; details: Donryu rat (Table 2-II)
Protocol: (b) Rat hyperimmune antiserum against egg albumin
A solution of egg albumin (20 mg.) in normal saline (1 ml.) was mixed with complete adjuvant (1 ml.) (made by Difco Laboratories) to given an emulsion. The emulsion was subcutaneously given in a single dose of 1 ml. divided equally (0.25 ml.) to the four pads of male S.D. strain rats aged 6 weeks, each weighing about 200 g. (The first immunization).
One week after the administration, an emulsion which was prepared by mixing a solution of egg albumin (10 mg.) in normal saline (1 ml.) with complete adjuvant (1 ml.) was further given subcutaneously (at 3 places) and intramuscularly (at 1 place) in a single dose of 1 ml. divided equally (0.25 ml.) to thigh of the same rats. (The second immunization).
Three weeks after the second administration, a solution of egg albumin (1 mg.) in normal saline (1 ml.) was further given intracutaneously in a single dose of 0.3 ml. divided equally (0.1 ml.) to 3 places of the same rats. (The third immunization).
One week after the third administration, blood samples were collected from rats and treated in substantially the same manner as described in the above item (a). The antisera thus obtained were stored at -80° C. prior to use.
Further, an inhibition test on P.C.A. reaction using the rat hyperimmuneantiserum against egg albumin was carried out in substantially the same manner as described in the above, excepting that the intravenous administration to bring about P.C.A. was carried out at 5.5 hours after the administration of the serum and antiserum. And inhibitory effect on the P.C.A. reaction was also calculated in substantially the same manner as described in the above.
as §1, §2, §3, §4, §5, §6, §7, §8

SMILES | antiallergic effects [1] | apomorphine-like side effect [2] | curariform activity ([3]; Japanese Patent Publication No. 24092/1961) | Inhibitory effect on P.C.A. reaction ([4]; 10 mg/kg) | Inhibitory effect on P.C.A. reaction ([4]; 30 mg/kg) | Inhibitory effect on P.C.A. reaction ([5]; intraperitoneal, 20 mg/kg) | Inhibitory effect on P.C.A. reaction ([5]; intraperitoneal, 60 mg/kg) | Inhibitory effect on P.C.A. reaction ([5]; oral, 50 mg/kg) | Inhibitory effect on P.C.A. reaction ([5]; oral, 100 mg/kg) | Inhibitory effect on P.C.A. reaction ([5]; oral, 200 mg/kg) | LD50 at 168 h [6] | Inhibitory effect on P.C.A. reaction ([7]; intraperitoneal, 20 mg/kg) | Inhibitory effect on P.C.A. reaction ([7]; intraperitoneal, 60 mg/kg) | Inhibitory effect on P.C.A. reaction ([7]; oral, 50 mg/kg) | Inhibitory effect on P.C.A. reaction ([7]; oral, 100 mg/kg) | Inhibitory effect on P.C.A. reaction ([7]; oral, 200 mg/kg) | adrenolytic action and antitussive properties ([3]; Chemical Abstracts Vol. 68, 94521Z (1968)) | Inhibitory effect on P.C.A. reaction ([5]; intraperitoneal, 66 mg/kg) | Inhibitory effect on P.C.A. reaction ([7]; intraperitoneal, 66 mg/kg) | diuretic activity ([3]; THE MERCK INDEX EIGHTH EDITION, Page 159 (1968))
COc1cc2c(cc1O)CC1c3c(cc(OC)c(OC)c3-2)CCN1C (centres unmarked) [N-methyllaurotetanine] | much superior antiallergic effects | without apomorphine-like side effect | curariform activity | – | – | – | – | – | – | – | – | – | – | – | – | – | – | – | – | –
COc1cc2c(cc1OC)-c1c(OC)c(OC)cc3c1[C@H](C2)N(C)CC3 [Glaucine, glaucine] | much superior antiallergic effects | without apomorphine-like side effect | – | 50% | 60% | 60% | 95% | 70% | 80% | 95% | 212 mg/kg | 50% | 85% | 60% | 80% | 90% | adrenolytic action and antitussive properties | – | – | –
COc1cc2c(cc1O)C[C@H]1c3c(cc(O)c(OC)c3-2)CCN1C [Boldine, boldine] | much superior antiallergic effects | without apomorphine-like side effect | – | – | 20% | – | – | – | – | – | 145 mg/kg | – | – | – | – | – | – | 40% | 30% | diuretic activity
